Reference: ChEMBL document CHEMBL1201862, “PubChem BioAssay data set” (2004)
“And” between values parts separate entries of the source, which are not always exact repeats. Equal values may be shown once. The source made the active and inactive calls.

Experiments:
Type in all cases: functional
[1] = target: T1, Replicative DNA helicase DnaB (Mycobacterium tuberculosis, UniProt P9WMR3); experiment: DnaB intein splicing inhibitors, dose response, biochemical, cell-free fluorescence (AID 449749)
T1 sequence (P9WMR3 whole entry): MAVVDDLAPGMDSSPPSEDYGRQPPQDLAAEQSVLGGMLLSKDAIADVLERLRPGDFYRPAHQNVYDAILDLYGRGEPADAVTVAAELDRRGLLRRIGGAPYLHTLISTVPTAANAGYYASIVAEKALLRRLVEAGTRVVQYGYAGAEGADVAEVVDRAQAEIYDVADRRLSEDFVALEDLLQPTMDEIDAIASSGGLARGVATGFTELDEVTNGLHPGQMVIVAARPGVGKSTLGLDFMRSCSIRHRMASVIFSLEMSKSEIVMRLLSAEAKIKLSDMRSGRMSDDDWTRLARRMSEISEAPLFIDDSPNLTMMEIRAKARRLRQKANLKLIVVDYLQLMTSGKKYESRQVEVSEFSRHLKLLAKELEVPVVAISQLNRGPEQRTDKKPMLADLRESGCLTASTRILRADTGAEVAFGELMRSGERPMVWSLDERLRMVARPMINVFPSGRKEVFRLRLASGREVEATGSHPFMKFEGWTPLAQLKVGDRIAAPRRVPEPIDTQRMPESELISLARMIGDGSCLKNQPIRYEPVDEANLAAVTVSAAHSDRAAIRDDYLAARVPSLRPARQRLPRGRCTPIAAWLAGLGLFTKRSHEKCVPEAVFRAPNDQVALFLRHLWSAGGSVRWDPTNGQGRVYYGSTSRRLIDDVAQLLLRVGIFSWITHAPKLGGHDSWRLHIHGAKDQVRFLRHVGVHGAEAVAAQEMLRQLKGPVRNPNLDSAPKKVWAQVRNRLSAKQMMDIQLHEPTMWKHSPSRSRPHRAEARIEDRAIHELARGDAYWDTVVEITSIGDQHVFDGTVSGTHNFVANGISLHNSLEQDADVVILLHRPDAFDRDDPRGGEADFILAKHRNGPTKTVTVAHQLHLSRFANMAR

[2] = target: T2, Apoptotic protease-activating factor 1 (Homo sapiens, UniProt O14727)
T2 sequence (O14727 whole entry): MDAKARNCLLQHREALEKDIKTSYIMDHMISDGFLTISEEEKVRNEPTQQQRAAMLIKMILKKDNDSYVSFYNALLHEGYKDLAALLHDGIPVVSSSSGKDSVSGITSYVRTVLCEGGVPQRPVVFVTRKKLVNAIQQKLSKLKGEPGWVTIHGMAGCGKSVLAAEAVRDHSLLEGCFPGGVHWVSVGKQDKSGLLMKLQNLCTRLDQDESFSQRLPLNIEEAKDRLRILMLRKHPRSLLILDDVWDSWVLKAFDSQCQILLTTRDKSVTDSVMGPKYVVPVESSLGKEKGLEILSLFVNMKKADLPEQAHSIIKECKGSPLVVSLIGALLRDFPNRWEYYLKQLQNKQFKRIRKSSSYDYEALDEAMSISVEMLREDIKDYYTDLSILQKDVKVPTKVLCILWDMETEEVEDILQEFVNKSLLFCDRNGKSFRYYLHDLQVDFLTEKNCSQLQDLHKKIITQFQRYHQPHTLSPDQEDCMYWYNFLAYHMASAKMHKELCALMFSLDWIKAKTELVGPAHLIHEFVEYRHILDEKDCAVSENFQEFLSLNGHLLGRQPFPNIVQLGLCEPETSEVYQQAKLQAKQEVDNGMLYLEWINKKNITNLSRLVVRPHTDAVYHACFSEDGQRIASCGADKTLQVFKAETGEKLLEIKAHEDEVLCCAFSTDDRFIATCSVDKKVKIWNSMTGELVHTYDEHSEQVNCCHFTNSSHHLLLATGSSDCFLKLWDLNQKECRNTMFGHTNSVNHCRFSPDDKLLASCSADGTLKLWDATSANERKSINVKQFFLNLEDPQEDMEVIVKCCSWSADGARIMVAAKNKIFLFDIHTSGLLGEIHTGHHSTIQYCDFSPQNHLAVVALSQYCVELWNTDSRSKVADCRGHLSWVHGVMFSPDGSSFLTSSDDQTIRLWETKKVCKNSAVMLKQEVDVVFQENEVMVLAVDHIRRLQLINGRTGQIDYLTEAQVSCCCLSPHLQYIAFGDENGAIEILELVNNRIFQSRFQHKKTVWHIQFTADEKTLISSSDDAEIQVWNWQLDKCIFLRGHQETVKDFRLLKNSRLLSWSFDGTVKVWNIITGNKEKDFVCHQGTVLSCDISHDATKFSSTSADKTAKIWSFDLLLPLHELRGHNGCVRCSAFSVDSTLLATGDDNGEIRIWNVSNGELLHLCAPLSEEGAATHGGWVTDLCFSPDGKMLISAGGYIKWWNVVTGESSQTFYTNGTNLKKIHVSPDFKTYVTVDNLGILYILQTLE

Protein RecA = target: T3, Protein RecA (Mycobacterium tuberculosis, UniProt P9WHJ3); experiment: Fluorescence Cell-Free Homogeneous Dose Retest to Identify Inhibitors of RecA-Intein Splicing Activity. [Related pubchem assays (depositor defined):AID2097, AID2223, AID489010, AID492950]
T3 sequence (P9WHJ3 whole entry): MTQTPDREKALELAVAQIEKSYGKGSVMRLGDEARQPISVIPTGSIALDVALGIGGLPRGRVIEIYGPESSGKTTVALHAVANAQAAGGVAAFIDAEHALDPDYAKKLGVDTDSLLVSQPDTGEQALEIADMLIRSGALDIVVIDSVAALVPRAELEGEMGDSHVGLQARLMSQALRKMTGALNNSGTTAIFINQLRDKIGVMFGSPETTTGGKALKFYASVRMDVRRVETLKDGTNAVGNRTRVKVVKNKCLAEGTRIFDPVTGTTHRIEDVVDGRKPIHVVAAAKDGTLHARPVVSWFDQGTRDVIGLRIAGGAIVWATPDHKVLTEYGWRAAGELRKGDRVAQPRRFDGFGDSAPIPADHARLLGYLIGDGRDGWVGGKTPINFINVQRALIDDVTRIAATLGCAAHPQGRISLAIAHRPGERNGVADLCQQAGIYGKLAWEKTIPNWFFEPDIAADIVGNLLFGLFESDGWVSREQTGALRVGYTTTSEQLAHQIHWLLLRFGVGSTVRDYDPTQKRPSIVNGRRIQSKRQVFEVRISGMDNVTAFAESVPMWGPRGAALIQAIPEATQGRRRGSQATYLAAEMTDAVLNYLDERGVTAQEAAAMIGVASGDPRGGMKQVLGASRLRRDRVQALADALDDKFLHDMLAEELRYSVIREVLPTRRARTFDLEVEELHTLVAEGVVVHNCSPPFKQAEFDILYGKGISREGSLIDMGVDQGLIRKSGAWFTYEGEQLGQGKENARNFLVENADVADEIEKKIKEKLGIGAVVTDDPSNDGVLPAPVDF

Structure (SMILES) | AC50 [1] | IC50 [2] | EC50 (Protein RecA)
O=C1C(Cl)=C(N2CCC(C(=O)O)CC2)C(=O)c2ccccc21 | 19.3 µM (active) | 13.4 µM (active) | 5.78 µM (active)
CCCCCCCCCCOC(=O)Cn1c(COc2ccc(OC)cc2)[n+](C)c2ccccc21 | 3.97 µM (active) and 4.05 µM (active) | 10.7 µM (active) and 13.4 µM (active) | 10.6 µM (active) and 11.1 µM (active)
COC1=C(c2ccccc2)C(=O)c2ccccc2C1=O | 13.4 µM (active) | – | 13.3 µM (active)
COc1cc2c(cc1OC)-c1c(OC)c(OC)cc3c1[C@H](C2)N(C)CC3 | 3.6 µM (active) | 2.82 µM (active) | 4.91 µM (active)
